Source: the supplement of paper PMC10307832

Key:
Assay in all cases: relative viability (nuclei count vs DMSO), 5 days (fraction); higher = more cells survive
Crenolanib + Palbociclib = compound: CC1(COc2ccc3c(c2)ncn3-c2ccc3cccc(N4CCC(N)CC4)c3n2)COC1 [Crenolanib] + CC(=O)c1c(C)c2cnc(Nc3ccc(N4CCNCC4)cn3)nc2n(C2CCCC2)c1=O [Palbociclib] (partner 0.5 µM)
In short: (§1)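 Lung cancer cell lines were seeded in 1536-well plates and dosed by pin tool the next day, with either a single drug or a fixed anchor-drug dose combined with five library-drug doses (not always all listed) spaced in √10 steps. Five days later, one step fixed the cells and stained their nuclei (final 0.05% Triton X-100, 1% formaldehyde, 1 ug/ml Hoechst), and nuclei were counted on 4× images. Relative viability is the nuclei count in treated wells divided by the count in vehicle wells, and each value is the median of duplicate plates.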

Tivantinib + Luminespib = compound: O=C1NC(=O)[C@@H](c2cn3c4c(cccc24)CCC3)[C@@H]1c1c[nH]c2ccccc12 [Tivantinib] + CCNC(=O)c1noc(-c2cc(C(C)C)c(O)cc2O)c1-c1ccc(CN2CCOCC2)cc1 [Luminespib] (partner 0.01 µM)
In short: as §1

Crenolanib + Lapatinib = compound: CC1(COc2ccc3c(c2)ncn3-c2ccc3cccc(N4CCC(N)CC4)c3n2)COC1 [Crenolanib] + CS(=O)(=O)CCNCc1ccc(-c2ccc3ncnc(Nc4ccc(OCc5cccc(F)c5)c(Cl)c4)c3c2)o1 [Lapatinib] (partner 2 µM)
In short: as §1

Tivantinib + Palbociclib = compound: O=C1NC(=O)[C@@H](c2cn3c4c(cccc24)CCC3)[C@@H]1c1c[nH]c2ccccc12 [Tivantinib] + CC(=O)c1c(C)c2cnc(Nc3ccc(N4CCNCC4)cn3)nc2n(C2CCCC2)c1=O [Palbociclib] (partner 0.5 µM)
In short: as §1

Cell Line: UMC-11
- relative viability (Crenolanib + Palbociclib; first compound 0.01 µM): 0.391
- relative viability (Crenolanib + Palbociclib; first compound 0.03162 µM): 0.334
- relative viability (Crenolanib + Palbociclib; first compound 0.1 µM): 0.349
- relative viability (Crenolanib + Palbociclib; first compound 0.3162 µM): 0.286
- relative viability (Crenolanib + Palbociclib; first compound 1 µM): 0.352
- relative viability (Tivantinib + Luminespib; first compound 0.01 µM): 0.927
- relative viability (Tivantinib + Luminespib; first compound 0.03162 µM): 1.02
- relative viability (Tivantinib + Luminespib; first compound 0.1 µM): 0.928
- relative viability (Tivantinib + Luminespib; first compound 0.3162 µM): 1.13
- relative viability (Crenolanib + Lapatinib; first compound 0.01 µM): 0.955
- relative viability (Crenolanib + Lapatinib; first compound 0.03162 µM): 1.04
- relative viability (Crenolanib + Lapatinib; first compound 0.1 µM): 0.895
- relative viability (Crenolanib + Lapatinib; first compound 0.3162 µM): 0.985
- relative viability (Crenolanib + Lapatinib; first compound 1 µM): 0.95
- relative viability (Tivantinib + Palbociclib; first compound 0.01 µM): 0.354
- relative viability (Tivantinib + Palbociclib; first compound 0.03162 µM): 0.332
- relative viability (Tivantinib + Palbociclib; first compound 0.1 µM): 0.314
- relative viability (Tivantinib + Palbociclib; first compound 0.3162 µM): 0.311
